Series [1] concerns the target T1, Sodium channel protein type 2 subunit alpha (Homo sapiens, UniProt Q99250). Nature of the series: Inhibition of human Nav1.2 channel expressed in HEK cells at 10 uM by patch-clamp electrophysiology method. Format: cell-based. Particulars: HEK293. Background: The patch-clamp technique gives a direct electrical read-out from membranes.
Target sequence in this assay (Q99250 whole entry, looked up): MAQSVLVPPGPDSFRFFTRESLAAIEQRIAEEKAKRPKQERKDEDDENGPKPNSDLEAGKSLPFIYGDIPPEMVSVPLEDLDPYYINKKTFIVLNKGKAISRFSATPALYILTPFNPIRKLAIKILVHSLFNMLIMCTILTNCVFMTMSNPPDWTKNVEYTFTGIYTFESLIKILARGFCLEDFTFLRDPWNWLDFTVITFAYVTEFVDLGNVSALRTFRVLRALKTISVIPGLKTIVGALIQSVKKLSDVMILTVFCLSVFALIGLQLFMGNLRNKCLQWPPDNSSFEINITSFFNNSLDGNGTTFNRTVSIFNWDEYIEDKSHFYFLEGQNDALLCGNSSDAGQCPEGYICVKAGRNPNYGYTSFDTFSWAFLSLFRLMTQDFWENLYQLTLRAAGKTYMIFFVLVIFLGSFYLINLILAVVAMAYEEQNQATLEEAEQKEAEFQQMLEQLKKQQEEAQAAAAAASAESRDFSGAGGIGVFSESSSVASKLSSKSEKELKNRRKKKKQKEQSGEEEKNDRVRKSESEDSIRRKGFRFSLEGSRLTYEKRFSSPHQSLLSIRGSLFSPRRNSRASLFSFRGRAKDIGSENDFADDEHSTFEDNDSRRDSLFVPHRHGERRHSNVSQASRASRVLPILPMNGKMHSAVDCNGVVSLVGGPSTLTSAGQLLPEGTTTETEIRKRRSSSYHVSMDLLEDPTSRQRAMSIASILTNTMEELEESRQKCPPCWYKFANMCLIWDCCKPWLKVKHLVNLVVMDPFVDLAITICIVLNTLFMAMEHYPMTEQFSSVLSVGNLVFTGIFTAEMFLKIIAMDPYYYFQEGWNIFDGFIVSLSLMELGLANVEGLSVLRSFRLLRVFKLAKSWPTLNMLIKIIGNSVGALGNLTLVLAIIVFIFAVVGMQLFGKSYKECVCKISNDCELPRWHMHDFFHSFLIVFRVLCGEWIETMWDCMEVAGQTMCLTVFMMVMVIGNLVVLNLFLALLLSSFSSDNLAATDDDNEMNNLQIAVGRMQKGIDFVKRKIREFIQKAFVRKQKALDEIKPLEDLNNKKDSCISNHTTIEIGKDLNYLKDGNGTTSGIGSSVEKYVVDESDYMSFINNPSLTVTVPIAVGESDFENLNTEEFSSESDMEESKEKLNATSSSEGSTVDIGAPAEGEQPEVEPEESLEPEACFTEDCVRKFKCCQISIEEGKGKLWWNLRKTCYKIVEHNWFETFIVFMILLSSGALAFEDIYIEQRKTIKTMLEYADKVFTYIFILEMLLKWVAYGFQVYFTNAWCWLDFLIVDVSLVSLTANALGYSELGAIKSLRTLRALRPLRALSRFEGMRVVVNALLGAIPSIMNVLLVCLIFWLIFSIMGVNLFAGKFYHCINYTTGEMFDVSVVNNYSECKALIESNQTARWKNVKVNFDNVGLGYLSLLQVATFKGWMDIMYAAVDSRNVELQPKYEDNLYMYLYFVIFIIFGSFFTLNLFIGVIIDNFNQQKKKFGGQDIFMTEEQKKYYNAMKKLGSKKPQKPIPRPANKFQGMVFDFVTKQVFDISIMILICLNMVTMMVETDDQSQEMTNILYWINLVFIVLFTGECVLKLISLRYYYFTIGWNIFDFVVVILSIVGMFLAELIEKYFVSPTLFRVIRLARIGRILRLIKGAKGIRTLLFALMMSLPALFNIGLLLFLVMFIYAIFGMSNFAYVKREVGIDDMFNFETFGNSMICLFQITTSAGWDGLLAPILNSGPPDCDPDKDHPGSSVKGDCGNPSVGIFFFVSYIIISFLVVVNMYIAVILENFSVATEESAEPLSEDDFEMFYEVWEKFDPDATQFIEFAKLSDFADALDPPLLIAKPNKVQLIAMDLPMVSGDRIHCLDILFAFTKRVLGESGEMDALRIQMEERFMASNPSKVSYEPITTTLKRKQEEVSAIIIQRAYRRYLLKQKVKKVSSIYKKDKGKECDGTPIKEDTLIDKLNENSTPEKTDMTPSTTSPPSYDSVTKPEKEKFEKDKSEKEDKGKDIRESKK
The target of series [2] is T1, Sodium channel protein type 2 subunit alpha. In words: Inhibition of human Nav1.2 channel expressed in HEK cells at 100 uM by patch-clamp electrophysiology method. It is filed as cell-based. The note with it: HEK293.
Target sequence in this assay (Q99250 whole entry, looked up): as above
Series [3] is described as follows: Dissociation constant, pKa by potentiometric pH-metric method. Format: physicochemical.
The nature of series [4]: Octanol-buffer partition coefficient, log D at pH 7.4 by shake-flask method. Format: physicochemical.
Series [5] addresses T1, Sodium channel protein type 2 subunit alpha. In words: Inhibition of human Nav1.2 channel expressed in HEK cells by patch-clamp electrophysiology method. It is filed as cell-based, HEK293.
Target sequence in this assay (Q99250 whole entry): as the sequence (Q99250 whole entry, looked up) above

The source made the active and inactive calls. The rule behind the calls is not given here. Some results are limits rather than exact numbers.

Take `COc1ccc(-c2c[nH]c(-c3ccccc3)n2)cc1`: the inhibition entry in series [1] is “inactive”. This molecule displayed an inhibition in series [2] of 33.3%. This molecule returned a pKa in series [3] of 5.83. The logD in series [4] was found to be 3.66.
Consider `c1ccc(-c2c[nH]c(-c3ccccc3)n2)cc1`, for which the results for the inhibition in series [1] and in series [2] were 7.8% and 80.5%, respectively. In addition, inhibition in series [5] was half-maximal at 40.6 µM (IC50). Besides, the pKa in series [3] worked out at 5.65. The molecule also had a logD in series [4] of 3.72.
In the case of `FC(F)(F)c1cccc(-c2c[nH]c(-c3ccccc3)n2)c1`, the results for the inhibition in series [1] and in series [2] were 82.9% and 100%, respectively. In series [5], this molecule showed a concentration for half-maximal inhibition (IC50) of 2.7 µM. The same molecule gave a pKa in series [3] of 5.27. In series [4], this molecule registered a logD of 4.72.
`Clc1cccc(-c2nc(-c3ccccc3)c[nH]2)c1`: the inhibition in series [1] was 7.5%; in series [2] it was 92.2%. Besides, the pKa in series [3] turned out to be 5.12. The molecule also had a logD in series [4] of 4.54.
Regarding `FC(F)(F)c1cccc(-c2nc(-c3ccccc3)c[nH]2)c1`, the inhibition in series [1] worked out at 49.2%; in series [2], 95.2%. For the same molecule, the pKa in series [3] turned out to be 5.11. The same molecule returned a logD in series [4] of 4.54.
In the same order, the values of `COc1cccc(-c2nc(-c3ccccc3)c[nH]2)c1` are “inactive”, 41.7%, 5.57 and 3.84.
`Clc1ccc(-c2nc(-c3ccccc3)c[nH]2)cc1`: the inhibition in series [1] was 92.5%; in series [2] it was 100%. In series [5], this molecule yielded an IC50 of 1.4 µM. In series [3], this molecule came in with a pKa of 5.37. In series [4], this molecule showed a logD of 4.27.
For `COc1ccc(-c2nc(-c3ccccc3)c[nH]2)cc1`, the pKa in series [3] stood at 6.03. In addition, in series [4], the logD stood at 3.62.
As for `FC(F)(F)c1ccc(-c2c[nH]c(-c3ccccc3)n2)cc1`, the inhibition stood at 91.6% in series [1] and 100% in series [2]. The molecule also displayed an IC50 in series [5] of 1.4 µM. This molecule also showed a pKa in series [3] of 5.31. This molecule had a logD in series [4] of 4.78.
For the molecule `O=[N+]([O-])c1cccc(-c2c[nH]c(-c3ccccc3)n2)c1`, the figures for the inhibition in series [1] and in series [2] were 15.6% and 85.8%, respectively. For the same molecule, the pKa in series [3] amounted to 4.82. This molecule showed a logD in series [4] of 3.9.
In series [3], `FC(F)(F)c1ccc(-c2nc(-c3ccccc3)c[nH]2)cc1` came in with a pKa of 5.19. This molecule also gave a logD in series [4] of 4.9.
Turning to `FC(F)(F)c1cccc(-c2c[nH]c(-c3ccc(Cl)cc3)n2)c1`, the figures for the inhibition in series [1] and in series [2] were 27.5% and 43.6%, respectively. Moreover, the half-inhibitory concentration (IC50) in series [5] is > 100 µM.
Molecule `Clc1cccc(-c2c[nH]c(-c3ccccc3)n2)c1` came in with a pKa in series [3] of 5.45. In series [4], this molecule registered a log distribution coefficient (logD) of 4.76.
`Nc1nnc(-c2cccc(Cl)c2Cl)c(N)n1` [LAMOTRIGINE]: the inhibition in series [1] was found to be 12.1%; in series [2] it was 35.1%. Also, the IC50 in series [5] was > 100 µM.
For the molecule `O=[N+]([O-])c1ccc(-c2c[nH]c(-c3ccccc3)n2)cc1`, in series [1], the inhibition result is “inactive”. The inhibition in series [2] came to 30.3%. In series [3], this molecule came in with a pKa of 5.12. In addition, the logD in series [4] was found to be 3.95.
As to `Clc1ccc(-c2c[nH]c(-c3ccccc3)n2)cc1`, the figures for the inhibition in series [1] and in series [2] were 31.5% and 96.6%, respectively. In series [3], this molecule had a pKa of 5.47. In series [4], this molecule came in with a logD of 4.53.
Turning to `O=[N+]([O-])c1cccc(-c2nc(-c3ccccc3)c[nH]2)c1`, the inhibition result in series [1] was “inactive”. For the same molecule, the inhibition in series [2] was 20.4%. In series [3], this molecule yielded a pKa of 4.92. This molecule also displayed a logD in series [4] of 3.89.
Turning to `COc1cccc(-c2c[nH]c(-c3ccccc3)n2)c1`, the inhibition in series [1] amounted to 14.2%; in series [2], 35.6%. In series [3], the pKa came to 5.58. Moreover, the logD in series [4] stood at 3.74.
In the case of `O=[N+]([O-])c1ccc(-c2nc(-c3ccccc3)c[nH]2)cc1`, the inhibition worked out at 57.1% in series [1] and 92.6% in series [2]. Moreover, the pKa in series [3] came to 4.74. Further, in series [4], the logD came out at 4.06.
For `O=[N+]([O-])c1ccc(-c2nc(-c3cccc(C(F)(F)F)c3)c[nH]2)cc1`, the figures for the inhibition in series [1] and in series [2] were 86.9% and 100%, respectively. Further, half-maximal inhibition in series [5] (IC50) was put at 2.5 µM.
As for `FC(F)(F)c1cccc(-c2c[nH]c(-c3cccc(C(F)(F)F)c3)n2)c1`, the inhibition in series [1] and in series [2] was 100% in each case. This molecule registered an IC50 in series [5] of 0.2 µM.

As a reminder, the inhibition is the share of the control response that was lost under treatment. Broadly, the pKa is the pH at which an ionisable group is half protonated. High values mean a weaker acid or stronger base, low ones a stronger acid or weaker base. Usually logD stands for lipophilicity at a set pH, counting ionised and neutral species. The IC50 is the concentration needed to halve the response being measured.

For the origin of these results see ChEMBL document CHEMBL1136877, “2,4(5)-diarylimidazoles as inhibitors of hNaV1.2 sodium channels: pharmacological evaluation and structure-property relationships” (Bioorg Med Chem, 2009).
